# Experiments:
# Test in all cases: relative viability (nuclei count vs DMSO), 5 days (fraction); higher = more cells survive
# [1] = compound: CC1(C)CCC(CN2CCN(c3ccc(C(=O)NS(=O)(=O)c4ccc(NCC5CCOCC5)c([N+](=O)[O-])c4)c(Oc4cnc5[nH]ccc5c4)c3)CC2)=C(c2ccc(Cl)cc2)C1 [Venetoclax] + CS(=O)(=O)CCNCc1ccc(-c2ccc3ncnc(Nc4ccc(OCc5cccc(F)c5)c(Cl)c4)c3c2)o1 [Lapatinib] (partner 2 µM)
# Outline: (§1)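 The day after seeding in 1536-well plates, lung cancer cell lines were treated by pin tool with a single drug, or with a fixed anchor-drug dose together with five library-drug doses (not always all listed) in √10 steps. After 5 days, a combined fix-and-stain solution (final 0.05% Triton X-100, 1% formaldehyde, 1 ug/ml Hoechst) was added. Nuclei counted on 4× images gave relative viability as treated counts over vehicle counts, reported as the median of duplicate plates.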
# [2] = compound: Cn1cnc2c(F)c(Nc3ccc(Br)cc3Cl)c(C(=O)NOCCO)cc21 [Selumetinib] + Cc1nc(Nc2ncc(C(=O)Nc3c(C)cccc3Cl)s2)cc(N2CCN(CCO)CC2)n1 [Dasatinib] (partner 0.075 µM)
# Outline: as §1
# [3] = compound: CC1(C)CCC(CN2CCN(c3ccc(C(=O)NS(=O)(=O)c4ccc(NCC5CCOCC5)c([N+](=O)[O-])c4)c(Oc4cnc5[nH]ccc5c4)c3)CC2)=C(c2ccc(Cl)cc2)C1 [Venetoclax] + COc1cc2c(Oc3ccc(NC(=O)C4(C(=O)Nc5ccc(F)cc5)CC4)cc3F)ccnc2cc1OCCCN1CCOCC1 [Foretinib] (partner 0.25 µM)
# Outline: as §1
# [4] = compound: Cn1cnc2c(F)c(Nc3ccc(Br)cc3Cl)c(C(=O)NOCCO)cc21 [Selumetinib] + O=C(c1cc(Cc2n[nH]c(=O)c3ccccc23)ccc1F)N1CCN(C(=O)C2CC2)CC1 [Olaparib] (partner 8 µM)
# Outline: as §1
cell line,measurement,setting,value
UMC-11,relative viability,[1]; first compound 0.01 µM,0.828
same,relative viability,[1]; first compound 0.03162 µM,0.942
same,relative viability,[1]; first compound 0.1 µM,0.712
same,relative viability,[1]; first compound 0.3162 µM,0.928
same,relative viability,[1]; first compound 1 µM,0.912
same,relative viability,[2]; first compound 0.02 µM,0.465
same,relative viability,[2]; first compound 0.06325 µM,0.486
same,relative viability,[2]; first compound 0.2 µM,0.474
same,relative viability,[2]; first compound 0.6325 µM,0.547
same,relative viability,[3]; first compound 0.01 µM,1.08
same,relative viability,[3]; first compound 0.03162 µM,1.05
same,relative viability,[3]; first compound 0.1 µM,1.01
same,relative viability,[3]; first compound 0.3162 µM,0.961
same,relative viability,[3]; first compound 1 µM,0.913
same,relative viability,[4]; first compound 0.02 µM,0.32
same,relative viability,[4]; first compound 0.06325 µM,0.33
same,relative viability,[4]; first compound 0.2 µM,0.384
same,relative viability,[4]; first compound 0.6325 µM,0.914

# Source: the supplement of paper PMC10307832
